# Literature values as cited in patent US6734210B2, “Therapeutically improved salts of azelaic acid” (priority 2000, dated 2004).
smiles,measurement,setting,value
O=C(O)CCCCCCCC(=O)O [azelaic acid],solubility in cosmetic oils,cosmetic oils,little or no solubility
same,maximum azelaic acid content of a water solution,water,about 0.24 % by weight (w/w)
